CC(=O)N[C@@H](CC(C)C)C(=O)O
solubility (mole fraction)
Details | 283.15 K | 288.15 K | 293.15 K | 298.15 K | 303.15 K | 308.15 K | 313.15 K | 318.15 K | 323.15 K
in acetone | 0.00363 | 0.00434 | 0.00525 | 0.0062 | 0.00734 | 0.00886 | 0.0106 | 0.0124 | 0.0146
in acetonitrile | 0.000712 | 0.000811 | 0.00114 | 0.00141 | 0.00163 | 0.00198 | 0.00249 | 0.00295 | 0.00335
in ethanol | 0.0243 | 0.0278 | 0.0314 | 0.0353 | 0.0396 | 0.0456 | 0.0504 | 0.0567 | 0.0624
in ethyl acetate | 0.00103 | 0.00127 | 0.0015 | 0.00178 | 0.00207 | 0.00243 | 0.0028 | 0.00328 | 0.00374
in isobutanol | 0.0148 | 0.0176 | 0.0206 | 0.0242 | 0.0283 | 0.0328 | 0.0375 | 0.0425 | 0.0478
in isopropanol | 0.0177 | 0.0206 | 0.0238 | 0.0274 | 0.0313 | 0.0354 | 0.0405 | 0.0464 | 0.0526
in methanol | 0.0309 | 0.0357 | 0.0403 | 0.0456 | 0.0514 | 0.0589 | 0.066 | 0.0729 | 0.0824
in methyl acetate | 0.00106 | 0.00134 | 0.00159 | 0.00191 | 0.00223 | 0.00259 | 0.0033 | 0.00396 | 0.00453
in n-butanol | 0.017 | 0.0192 | 0.0221 | 0.0255 | 0.0291 | 0.0331 | 0.0379 | 0.0429 | 0.0489
in n-propanol | 0.0196 | 0.0223 | 0.0251 | 0.0286 | 0.0329 | 0.0376 | 0.0424 | 0.0478 | 0.0541
in n-propyl acetate | 0.00087 | 0.00107 | 0.00126 | 0.00149 | 0.00177 | 0.00211 | 0.00249 | 0.003 | 0.00357
in sec-butanol | 0.0177 | 0.0207 | 0.0241 | 0.0279 | 0.0325 | 0.037 | 0.042 | 0.0473 | 0.0541

— BigSolDB 2.1
